The target in one assay is Syk kinase (Homo sapiens, UniProt P43405). The experiment in a line: Syk kinase enzymatic assay (Kit-Tyr 2 Peptide). It is filed as biochemical. As to conditions: 8 concentrations, 1 μM down to 0.0003 μM; upper bound of each range is 'less than'; read-out: IC50: Enzymatic Activity (Syk kinase).
In a further assay the test system is RBL-2H3 cells. The experiment in a line: IgE-induced Beta-hexosaminidase secretion in RBL-2H3 cells. Conditions: Rattus norvegicus, RBL-2H3, RBL-2H3 cells sensitized with SPE-7, stimulated with DNP-BSA; upper bound of each range is 'less than'; read-out: IC50, IgE-induced Beta-hexosaminidase secretion. It is filed as cell-based.

The term IC50 denotes the concentration needed to halve the response being measured.

Consider `CN1CCN(c2ccc(-c3cc4nccnc4c(NCC4CN(S(C)(=O)=O)CCO4)n3)cc2)CC1` (stereo in doubt) [Compound 486, (S)-7-(4-(4-methylpiperazin-1-yl)phenyl)-N-((4-(methylsulfonyl)morpholin-2-yl)methyl)pyrido[4,3-b]pyrazin-5-amine], for which the IC50 on Syk kinase and in the assay with RBL-2H3 cells was 0.001 to 0.1 µM each time.

In the case of `Fc1cc(-c2cc3nccnc3c(NCC3CNCCS3)n2)ccc1N1CCOCC1` (centres unmarked) [Compound 240], the IC50 on Syk kinase and with RBL-2H3 cells was 0.001 to 0.1 µM in each case.

Turning to `CN(C)c1ccc(-c2cc3nccnc3c(N3CCC4(CCCNC4)C3)n2)cc1` (centres unmarked) [Compound 111], the IC50 on Syk kinase and in the assay with RBL-2H3 cells was 0.001 to 0.1 µM throughout.

For `CS(=O)(=O)N1CCCN(c2ccc(-c3cc4nccnc4c(NC[C@@H]4CNCCO4)n3)cc2)CC1` [Compound 502], the IC50 at Syk kinase lay within 0.001 to 0.1 µM; with RBL-2H3 cells, 0.1 to 1 µM.

For the compound `COc1ccc(-c2cc3nccnc3c(NC[C@H]3CCCNC3)n2)c(F)c1` [Compound 68], the IC50 at Syk kinase and in the assay with RBL-2H3 cells was 0.1 to 1 µM in each case.

Turning to `FC(F)Oc1ccc(-c2cc3nccnc3c(NC[C@@H]3CNCCO3)n2)cc1` [Compound 138], the IC50 on Syk kinase and with RBL-2H3 cells was 0.1 to 1 µM in each case.

Consider `O=C(CCO)N1CCC(c2ccc(-c3cc4nccnc4c(NC[C@@H]4CNCCO4)n3)cc2)CC1` [Compound 512], for which the IC50 was in the range of 0.001 to 0.1 µM on Syk kinase and 0.1 to 1 µM in the assay with RBL-2H3 cells.

`N#CCCC(=O)N1CCN(c2ccc(-c3cc4nccnc4c(NC[C@@H]4CNCCO4)n3)cc2)CC1` [Compound 434]: the IC50 was in the range of 0.001 to 0.1 µM at Syk kinase and 0.1 to 1 µM in the assay with RBL-2H3 cells.

On to `Cn1ccc2cc(-c3cc4nccnc4c(NC[C@@H]4CNCCO4)n3)cnc21` [Compound 234], for which the IC50 on Syk kinase and in the assay with RBL-2H3 cells was 0.1 to 1 µM throughout.

For the compound `CC(Nc1nc(-c2ccc(N3CCOCC3)c(F)c2)cc2nccnc12)C1CNCCO1` (centres unmarked) [Compound 278], the IC50 on Syk kinase and with RBL-2H3 cells was 0.001 to 0.1 µM each time.

As to `CC(C)(C)c1ccc(-c2cc3nccnc3c(NC[C@H]3CCCNC3)n2)cc1` [Compound 79], the IC50 on Syk kinase was 0.001 to 0.1 µM; in the assay with RBL-2H3 cells, 0.1 to 1 µM.

As to `Fc1cc(-c2cc3nccnc3c(NC[C@@H]3CNCCO3)n2)ccc1N1CCCOCC1` [Compound 219], the IC50 at Syk kinase and in the assay with RBL-2H3 cells was 0.001 to 0.1 µM in each case.

Consider `CC(=O)N(C)C1CCN(c2ccc(-c3cc4nccnc4c(NC[C@@H]4CNCCO4)n3)cc2)CC1` [Compound 420], for which the IC50 on Syk kinase is 0.001 to 0.1 µM; with RBL-2H3 cells, 0.1 to 1 µM.

On to `FC1(F)CCNC[C@@H]1CNc1nc(-c2cnn(C3CCOCC3)c2)cc2nccnc12` [Compound 399, (R)—N-((4,4-difluoropiperidin-3-yl)methyl)-7-(1-(tetrahydro-2H-pyran-4-yl)-1H-pyrazol-4-yl)pyrido[4,3-b]pyrazin-5-amine], for which the IC50 at Syk kinase and in the assay on RBL-2H3 cells was 0.001 to 0.1 µM in each case.

Turning to `CNc1ccc(-c2cc3nccnc3c(NCC3CNCCC3(F)F)n2)cc1` (centres unmarked) [Compound 291], the IC50 at Syk kinase and in the assay on RBL-2H3 cells was 0.001 to 0.1 µM throughout.

Regarding `Nc1ccc(-c2cc3nccnc3c(NC[C@@H]3CCCNC3)n2)cc1Cl` [Compound 75], the IC50 at Syk kinase and in the assay on RBL-2H3 cells was 0.1 to 1 µM each time.

On to `CN1CCN(c2ccc(-c3cc4nccnc4c(NC[C@@H]4CN(C(=O)C(F)F)CCO4)n3)cc2)CC1` [Compound 449, (R)-2,2-difluoro-1-(2-((7-(4-(4-methylpiperazin-1-yl)phenyl)pyrido[4,3-b]pyrazin-5-ylamino)methyl)morpholino)ethanone], for which the IC50 at Syk kinase and with RBL-2H3 cells was 0.001 to 0.1 µM throughout.

In the case of `CS(=O)(=O)N1CCC(Nc2ccc(-c3cc4nccnc4c(NC[C@@H]4CNCCO4)n3)cc2)CC1` [Compound 500], the IC50 at Syk kinase was 0.001 to 0.1 µM; with RBL-2H3 cells it was 0.1 to 1 µM.

Take `FC1=CC(CNc2nc(-c3ccc(N4CCOCC4)cc3)cc3nccnc23)CNC1` (centres unmarked) [Compound 157]: the IC50 on Syk kinase and in the assay with RBL-2H3 cells was 0.001 to 0.1 µM throughout.

Turning to `CS(=O)(=O)c1ccc(-c2cc3nccnc3c(NC[C@@H]3CNCCC3(F)F)n2)cc1` [Compound 390, (S)—N-((4,4-difluoropiperidin-3-yl)methyl)-7-(4-(methylsulfonyl)phenyl)pyrido[4,3-b]pyrazin-5-amine], the IC50 at Syk kinase and with RBL-2H3 cells was 0.001 to 0.1 µM throughout.

Take `CCN1CCC(c2ccc(-c3cc4nccnc4c(NC[C@@H]4CN(C(=O)C(F)F)CCO4)n3)cc2)CC1` [Compound 464]: the IC50 lay within 0.001 to 0.1 µM at Syk kinase and 0.1 to 1 µM in the assay with RBL-2H3 cells.

Regarding `CN1CCN(c2ccc(-c3cc4nccnc4c(NC[C@H]4CNCCC4(F)F)n3)cc2)CC1` [Compound 373, (R)—N-((4,4-difluoropiperidin-3-yl)methyl)-7-(4-(4-methylpiperazin-1-yl)phenyl)pyrido[4,3-b]pyrazin-5-amine], the IC50 at Syk kinase and with RBL-2H3 cells was 0.1 to 1 µM each time.

Regarding `CS(=O)(=O)N1CCC(n2cc(-c3cc4nccnc4c(NCC4CNCCC4(F)F)n3)cn2)CC1` (centres unmarked) [Compound 321], the IC50 at Syk kinase and in the assay with RBL-2H3 cells was 0.001 to 0.1 µM in each case.

On to `CN(CCO)c1ccc(-c2cc3nccnc3c(NCC3CNCCC3(F)F)n2)cc1` (centres unmarked) [Compound 485, 2-((4-(5-((4,4-difluoropiperidin-3-yl)methylamino)pyrido[4,3-b]pyrazin-7-yl)phenyl)(methyl)amino)ethanol], for which the IC50 at Syk kinase and in the assay on RBL-2H3 cells was 0.001 to 0.1 µM each time.

For `O=C(c1ccco1)N1CCN(c2ccc(-c3cc4nccnc4c(NCC4CNCCO4)n3)cc2)CC1` (centres unmarked) [Compound 425], the IC50 at Syk kinase and in the assay on RBL-2H3 cells was 0.001 to 0.1 µM throughout.

Take `FC1(F)CCN(c2ccc(-c3cc4nccnc4c(NC[C@@H]4CNCCO4)n3)cc2)CC1` [Compound 229]: the IC50 at Syk kinase and in the assay on RBL-2H3 cells was 0.001 to 0.1 µM throughout.

On to `CN1CCN(c2ccc(-c3cc4nccnc4c(NCC4(F)CCCNC4)n3)cc2)CC1` (centres unmarked) [Compound 253], for which the results for the IC50 on Syk kinase and with RBL-2H3 cells were 0.001 to 0.1 µM and 0.1 to 1 µM, respectively.

In the case of `NC(=O)N1CCO[C@H](CNc2nc(-c3ccc(N4CCOCC4)cc3)cc3nccnc23)C1` [Compound 347], the IC50 on Syk kinase and in the assay with RBL-2H3 cells was 0.001 to 0.1 µM in each case.

For the compound `O=C(C1CC1)N1CCO[C@H](CNc2nc(-c3ccc(N4CCOCC4)cc3)cc3nccnc23)C1` [Compound 322], the IC50 is 0.001 to 0.1 µM at Syk kinase and 0.1 to 1 µM in the assay on RBL-2H3 cells.

Turning to `FC1(F)CCNCC1CNc1nc(-c2ccc(N3CCOCC3)c(Cl)c2)cc2nccnc12` (centres unmarked) [Compound 205], the IC50 on Syk kinase and in the assay with RBL-2H3 cells was 0.001 to 0.1 µM throughout.

`CS(=O)(=O)N1CCO[C@H](CNc2nc(-c3ccc(C4CCN(CCO)CC4)cc3)cc3nccnc23)C1` [Compound 493]: the figures for the IC50 on Syk kinase and in the assay with RBL-2H3 cells were 0.001 to 0.1 µM and 0.1 to 1 µM, respectively.

As for `CC(O)[C@H]1CCN(c2nc(-c3ccc(N4CCOCC4)cc3)cc3nccnc23)C1` (stereo partly drawn) [Compound 174, (S)-1-(1-(7-(4-morpholinophenyl)pyrido[4,3-b]pyrazin-5-yl)pyrrolidin-3-yl)ethanol], the IC50 at Syk kinase and in the assay on RBL-2H3 cells was 0.1 to 1 µM in each case.

`CC(C)C(=O)N1CCN(c2ccc(-c3cc4nccnc4c(NC[C@@H]4CNCCO4)n3)cc2)CC1` [Compound 405]: the IC50 on Syk kinase and in the assay with RBL-2H3 cells was 0.001 to 0.1 µM each time.

As for `CN1CCN(c2ccc(-c3cc4nccnc4c(NC[C@@H]4CNCCC4(F)F)n3)cc2)CC1` [Compound 372, (S)—N-((4,4-difluoropiperidin-3-yl)methyl)-7-(4-(4-methylpiperazin-1-yl)phenyl)pyrido[4,3-b]pyrazin-5-amine], the IC50 at Syk kinase lay within 0.001 to 0.1 µM; with RBL-2H3 cells, 0.1 to 1 µM.

`O=C(CC(F)(F)F)N1CCN(c2ccc(-c3cc4nccnc4c(NC[C@@H]4CNCCO4)n3)cc2F)CC1` [Compound 428]: the IC50 on Syk kinase and in the assay on RBL-2H3 cells was 0.001 to 0.1 µM in each case.

As to `Clc1ccc(-c2cc3nccnc3c(NCC3CCCNC3)n2)cc1` (centres unmarked) [Compound 55], the IC50 at Syk kinase was 0.001 to 0.1 µM; in the assay with RBL-2H3 cells, 0.1 to 1 µM.

On to `CC(=O)N1CCC(c2ccc(-c3cc4nccnc4c(NC[C@@H]4CN(C(=O)C(F)F)CCO4)n3)cc2)CC1` [Compound 470], for which the IC50 on Syk kinase and in the assay with RBL-2H3 cells was 0.001 to 0.1 µM in each case.

Regarding `CS(=O)(=O)CC(=O)N1CCN(c2ccc(-c3cc4nccnc4c(NC[C@@H]4CNCCO4)n3)cc2)CC1` [Compound 280], the IC50 is 0.001 to 0.1 µM on Syk kinase and 0.1 to 1 µM in the assay on RBL-2H3 cells.

`OCCOC1CCN(c2ccc(-c3cc4nccnc4c(NC[C@@H]4CNCCO4)n3)cc2)CC1` [Compound 286]: the IC50 on Syk kinase and in the assay on RBL-2H3 cells was 0.001 to 0.1 µM in each case.

With `CC(=O)N1CCC(c2ccc(-c3cc4nccnc4c(NC[C@@H]4CN(S(C)(=O)=O)CCO4)n3)cc2)CC1` [Compound 468], the values for the half-inhibitory concentration (IC50) at Syk kinase and with RBL-2H3 cells were 0.001 to 0.1 µM and 0.1 to 1 µM, respectively.

For the compound `CC(C)Oc1ccc(-c2cc3nccnc3c(NCC3CNCCC3(F)F)n2)cc1F` (centres unmarked) [Compound 297], the IC50 at Syk kinase and with RBL-2H3 cells was 0.001 to 0.1 µM in each case.

`O=C(C1CC(F)(F)C1)N1CCN(c2ccc(-c3cc4nccnc4c(NC[C@@H]4CNCCO4)n3)cc2)CC1` [Compound 432]: the IC50 on Syk kinase and with RBL-2H3 cells was 0.001 to 0.1 µM throughout.

Take `C[C@@H]1CN(c2ccc(-c3cc4nccnc4c(NC[C@@H]4CNCCO4)n3)cc2F)CCO1` [Compound 387, 7-(3-fluoro-4-((R)-2-methylmorpholino)phenyl)-N—((S)-morpholin-2-ylmethyl)pyrido[4,3-b]pyrazin-5-amine]: the IC50 on Syk kinase and with RBL-2H3 cells was 0.001 to 0.1 µM throughout.

As to `FC1(CNc2nc(-c3cnn(C4CCCC4)c3)cc3nccnc23)CCCNC1` (centres unmarked) [Compound 289], the IC50 at Syk kinase and in the assay on RBL-2H3 cells was 0.001 to 0.1 µM each time.

As to `CS(=O)(=O)N1CCN(c2ccc(-c3cc4nccnc4c(NCC4CNCCC4(F)F)n3)cn2)CC1` (centres unmarked) [Compound 442], the IC50 at Syk kinase and in the assay with RBL-2H3 cells was 0.001 to 0.1 µM in each case.

On to `CN1CCN(c2ccc(-c3cc4nccnc4c(N4CC[C@@H](CO)C4)n3)cc2)CC1` [Compound 127], for which the IC50 is 0.001 to 0.1 µM at Syk kinase and 0.1 to 1 µM in the assay with RBL-2H3 cells.

The values above are taken from patent publication US10052330B2, “Substituted pyrido[3,4-b]pyrazines as Syk inhibitors” (HUTCHISON MEDIPHARMA LIMITED, priority 2011, dated 2018).
